Measurements published in patent US12157741B2, “Macrocyclic inhibitors of DYRK1A” (DANA-FARBER CANCER INSTITUTE, INC., priority 2018, dated 2024).

Legend:
Assay type in all cases: biochemical
DYRK1A = target: T1, DYRK1A (Homo sapiens, UniProt Q13627); test: DYRK1A enzyme assay (Promega ADP-Glo Kinase assay); details: for IC50: ADP-Glo, 3 μM ATP, read-out: Enzyme activity against DYRK1A; for potency against DYRK1A (statement on Table 5): statement in words
T1 construct: purchased Thermo Fisher Scientific PR7189B
Method: All DYRK1A kinase inhibition assays were conducted by using Promega™ ADP-Glo™ Kinase assay systems (Cat No. V9102).
For DYRK1A enzyme assay, each inhibitor mixed with 0.2 μg/μL of substrate (MVBP, SignalChem, M42-51N), 3 μM ATP (Promega™, Cat No. V9102), 3 ng of DYRK1A enzyme (Thermo Fisher Scientific, PR7189B) in 384-well plate. All samples were diluted with kinase reaction buffer (40 mM Tris HCl, 10 mM MgCL2, and 0.1 μg/μL BSA (bovine serum albumin), 0.05 mM DTT). After 1 h reaction at 25° C., ADP-Glo™ (Proeg™, V9102) reagent was added and incubated at rt for 40 min. Finally, kinase detection reagent (Promega™, Cat No. V6930) was added and reacted at 25° C. for 10 min. The luminescence signals were detected by using Synergy™ Neo2 microplate reader (BioTek®). Compound inhibition curve was fitted using GraphPad Prism 8.0 software.

CLK1 = target: T2, CLK1 (Homo sapiens, UniProt P49759); test: CLK1 enzyme assay (Promega ADP-Glo Kinase assay); details: 10 μM ATP, read-out: Enzyme activity against CLK1
T2 construct: purchased Signalchem C57-11G
Method: All CLK1 kinase inhibition assays were conducted by using Promega™ ADP-Glo™ Kinase assay systems (Cat No. V9102).
For DYRKIA enzyme assay, each inhibitor mixed with 0.1 μg/μL of substrate (MBP, SignalChem, M42-51N), 10 μM ATP (Promega™, Cat No. V9102), 1.6 ng of CLK1 enzyme (Signalchem, C57-11G) in 384-well plate. All samples were diluted with kinase reaction buffer (40 mM Tris HCl, 10 mM MgCL2, and 0.1 μg/μL BSA, 0.05 mM DTT). After 1 h reaction at 25° C., ADP-Glo™ (Promega™, Cat No. V9102) reagent was added and incubated at rt for 40 min. Finally, kinase detection reagent (Promega™, Cat No. V6930) was added and reacted at 25° C. for 10 min. The luminescence signals were detected by using Synergy™ Neo2 microplate reader (BioTek®). Compound inhibition curve was fitted using GraphPad Prism 8.0 software.

LRRK2 (G2019S) = target: T3, LRRK2 (G2019S) (Homo sapiens, UniProt Q5S007, G2019S); test: LRRK2(G2019S) enzyme assay (Promega ADP-Glo Kinase assay); details: 25 μM ATP, read-out: Enzyme activity against LRRK2 (G2019S)
T3 construct: purchased SignalChem L10-12GG
Method: All LRRK2 kinase inhibition assays were conducted by using Promega™ ADP-Glo™ Kinase assay systems (Cat No. V4475).
For LRRK G2019S, each compound mixed with 0.2 μg/μL of substrate, 25 μM ATP, 16 ng of LRRK2 G2019S enzyme (SignalChem, L10-12GG). All samples were diluted with kinase reaction buffer (40 mmol/L TrisHCl, 10 mmol/L MgCl2, and 0.1 μg/μL BSA, 0.05 mM DTT). After a 2 h reaction at 25° C., ADP-Glo™ (Promega™, V9102) reagent was added and incubated at rt for 40 min. Finally, kinase detection reagent (Promega™, Cat No. V6930) was added and reacted at 25° C. for 10 min. The luminescence signals were detected by using Synergy™ Neo2 microplate reader (BioTek®). Compound inhibition curve was fitted using GraphPad Prism 8.0 software.

DYRK1B = target: T4, DYRK1B (Homo sapiens, UniProt Q9Y463); test: Invitrogen Zlyte assay, DYRK1B
T4 construct: purchased Invitrogen (assay run by the vendor)
T4 sequence (Q9Y463 whole entry): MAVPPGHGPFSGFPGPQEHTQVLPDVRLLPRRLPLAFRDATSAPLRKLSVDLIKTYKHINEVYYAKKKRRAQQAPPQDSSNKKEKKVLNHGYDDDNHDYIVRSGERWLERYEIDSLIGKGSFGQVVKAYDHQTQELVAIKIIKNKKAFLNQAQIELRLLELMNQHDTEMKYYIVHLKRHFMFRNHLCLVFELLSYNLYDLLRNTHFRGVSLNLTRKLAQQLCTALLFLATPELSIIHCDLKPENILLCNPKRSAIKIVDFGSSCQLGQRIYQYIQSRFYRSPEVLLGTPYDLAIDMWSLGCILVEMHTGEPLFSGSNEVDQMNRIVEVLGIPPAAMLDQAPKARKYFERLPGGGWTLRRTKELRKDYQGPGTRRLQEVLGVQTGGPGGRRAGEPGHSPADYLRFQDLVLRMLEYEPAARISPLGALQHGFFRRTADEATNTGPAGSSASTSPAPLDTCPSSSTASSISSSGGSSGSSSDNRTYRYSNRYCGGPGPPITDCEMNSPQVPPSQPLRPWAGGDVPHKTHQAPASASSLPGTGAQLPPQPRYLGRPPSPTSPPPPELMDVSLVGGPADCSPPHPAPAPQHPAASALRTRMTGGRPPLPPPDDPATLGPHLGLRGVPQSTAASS

T2 sequence (P49759 whole entry): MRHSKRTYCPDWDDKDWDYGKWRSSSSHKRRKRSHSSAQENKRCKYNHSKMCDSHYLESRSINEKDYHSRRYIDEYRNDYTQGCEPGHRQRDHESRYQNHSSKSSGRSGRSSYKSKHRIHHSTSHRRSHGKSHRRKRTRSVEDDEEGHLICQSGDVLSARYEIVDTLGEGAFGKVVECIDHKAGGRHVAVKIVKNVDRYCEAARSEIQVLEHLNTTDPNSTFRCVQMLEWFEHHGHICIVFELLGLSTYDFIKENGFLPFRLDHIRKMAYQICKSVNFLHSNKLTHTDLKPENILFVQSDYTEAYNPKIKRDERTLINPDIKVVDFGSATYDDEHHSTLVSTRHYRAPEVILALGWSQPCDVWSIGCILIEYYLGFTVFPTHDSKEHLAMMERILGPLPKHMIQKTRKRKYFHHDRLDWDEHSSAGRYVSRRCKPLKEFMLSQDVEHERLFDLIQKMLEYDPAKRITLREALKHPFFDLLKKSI
T3 sequence (Q5S007 whole entry G2019S): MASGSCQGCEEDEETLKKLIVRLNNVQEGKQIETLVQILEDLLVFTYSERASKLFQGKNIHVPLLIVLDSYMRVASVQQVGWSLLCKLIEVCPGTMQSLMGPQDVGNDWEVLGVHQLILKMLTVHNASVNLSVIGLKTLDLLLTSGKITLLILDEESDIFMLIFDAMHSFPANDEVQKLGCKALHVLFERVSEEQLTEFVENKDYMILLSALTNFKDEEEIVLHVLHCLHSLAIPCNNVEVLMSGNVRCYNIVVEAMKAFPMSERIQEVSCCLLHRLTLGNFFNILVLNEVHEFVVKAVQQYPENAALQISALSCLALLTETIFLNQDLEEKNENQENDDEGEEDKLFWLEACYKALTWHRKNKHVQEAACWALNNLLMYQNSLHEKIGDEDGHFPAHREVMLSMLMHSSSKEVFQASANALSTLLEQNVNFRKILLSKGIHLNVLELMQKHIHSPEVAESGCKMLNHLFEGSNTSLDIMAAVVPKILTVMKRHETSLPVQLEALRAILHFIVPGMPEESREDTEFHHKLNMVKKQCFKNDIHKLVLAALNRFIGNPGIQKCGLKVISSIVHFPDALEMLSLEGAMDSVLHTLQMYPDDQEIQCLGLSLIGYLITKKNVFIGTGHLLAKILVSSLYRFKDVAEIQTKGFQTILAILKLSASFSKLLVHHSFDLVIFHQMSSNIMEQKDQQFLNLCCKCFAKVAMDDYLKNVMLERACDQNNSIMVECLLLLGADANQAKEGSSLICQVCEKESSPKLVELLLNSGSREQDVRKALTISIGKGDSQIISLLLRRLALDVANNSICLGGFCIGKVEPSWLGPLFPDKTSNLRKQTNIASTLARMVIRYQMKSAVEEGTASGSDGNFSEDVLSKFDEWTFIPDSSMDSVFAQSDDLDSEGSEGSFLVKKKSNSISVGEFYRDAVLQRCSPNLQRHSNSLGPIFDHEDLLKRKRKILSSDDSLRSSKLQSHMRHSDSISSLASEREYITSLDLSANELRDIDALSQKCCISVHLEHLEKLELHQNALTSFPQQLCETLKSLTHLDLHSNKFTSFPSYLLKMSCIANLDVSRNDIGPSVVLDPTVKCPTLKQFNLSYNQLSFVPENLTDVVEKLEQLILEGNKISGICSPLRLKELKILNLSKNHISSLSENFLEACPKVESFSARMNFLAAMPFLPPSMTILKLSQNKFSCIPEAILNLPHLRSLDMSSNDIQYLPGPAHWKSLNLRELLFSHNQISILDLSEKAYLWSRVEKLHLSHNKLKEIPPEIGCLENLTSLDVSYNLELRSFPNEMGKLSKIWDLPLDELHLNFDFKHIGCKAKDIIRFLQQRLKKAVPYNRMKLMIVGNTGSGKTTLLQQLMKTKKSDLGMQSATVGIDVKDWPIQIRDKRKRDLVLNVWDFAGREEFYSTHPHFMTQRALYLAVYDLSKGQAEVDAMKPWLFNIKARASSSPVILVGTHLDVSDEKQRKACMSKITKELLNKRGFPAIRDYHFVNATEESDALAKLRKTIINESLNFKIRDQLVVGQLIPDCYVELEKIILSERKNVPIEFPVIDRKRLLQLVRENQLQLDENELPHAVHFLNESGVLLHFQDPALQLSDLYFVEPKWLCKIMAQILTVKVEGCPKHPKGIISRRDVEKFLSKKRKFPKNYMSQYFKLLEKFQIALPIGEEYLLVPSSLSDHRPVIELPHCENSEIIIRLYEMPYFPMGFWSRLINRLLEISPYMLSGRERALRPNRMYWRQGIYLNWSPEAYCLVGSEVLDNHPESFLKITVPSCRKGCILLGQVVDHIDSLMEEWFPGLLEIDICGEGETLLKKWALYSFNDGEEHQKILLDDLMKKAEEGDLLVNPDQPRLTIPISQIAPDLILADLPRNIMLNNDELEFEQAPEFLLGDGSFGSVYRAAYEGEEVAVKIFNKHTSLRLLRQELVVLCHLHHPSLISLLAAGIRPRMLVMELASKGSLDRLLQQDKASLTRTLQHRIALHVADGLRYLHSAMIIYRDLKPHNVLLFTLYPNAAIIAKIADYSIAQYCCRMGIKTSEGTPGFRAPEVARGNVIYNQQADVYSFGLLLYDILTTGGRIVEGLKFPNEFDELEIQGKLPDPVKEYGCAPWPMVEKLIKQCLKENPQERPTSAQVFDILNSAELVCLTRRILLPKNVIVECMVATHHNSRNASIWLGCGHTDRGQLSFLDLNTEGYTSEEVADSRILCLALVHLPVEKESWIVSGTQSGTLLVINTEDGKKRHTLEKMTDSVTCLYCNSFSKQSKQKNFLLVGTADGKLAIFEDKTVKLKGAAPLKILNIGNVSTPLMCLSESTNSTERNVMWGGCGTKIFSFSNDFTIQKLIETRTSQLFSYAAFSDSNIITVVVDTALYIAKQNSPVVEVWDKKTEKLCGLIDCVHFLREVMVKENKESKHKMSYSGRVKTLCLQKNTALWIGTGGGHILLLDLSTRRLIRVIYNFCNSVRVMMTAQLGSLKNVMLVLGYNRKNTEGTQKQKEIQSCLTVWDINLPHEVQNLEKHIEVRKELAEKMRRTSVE

| SMILES | IC50 (DYRK1A) | potency against DYRK1A (statement on Table 5) (DYRK1A) | IC50 (CLK1) | IC50 (LRRK2 (G2019S)) | IC50 (DYRK1B) |
| --- | --- | --- | --- | --- | --- |
| COCCn1cc2c(n1)CN(C)C(=O)CCCn1cc(c(C(F)(F)F)n1)-c1c[nH]c3ncc-2cc13 [Compound 59, (Z)-31-(2-methoxyethyl)-5-methyl-13-(trifluoromethyl)-11H,21H,31H-5-aza-2(3,5)-pyrrolo[2,3-b]pyridina-1(4,1),3(4,3)-dipyrazolacyclononaphan-6-one] | < 50 nM | most potent | < 50 nM | > 100 nM |  |
| COCCn1nc2c(c1C#N)-c1cnc3[nH]cc(c3c1)-c1cn(nc1C(F)(F)F)CCC(=O)N(C)C2 [Compound 67, (Z)-31-(2-methoxyethyl)-5-methyl-6-oxo-13-(trifluoromethyl)-11H,21H,31H-5-aza-2(3,5)-pyrrolo[2,3-b]pyridina-1(4,1),3(4,3)-dipyrazolacyclooctaphane-35-carbonitrile] | < 50 nM | most potent | > 100 nM | > 100 nM |  |
| COc1c2c(nn1C)CN(C(C)C)C(=O)CCCn1cc(c(C(F)(F)F)n1)-c1c(C)[nH]c3ncc-2cc13 [Compound 51, (Z)-5-isopropyl-35-methoxy-22,31-dimethyl-13-(trifluoromethyl)-11H,21H,31H-5-aza-2(3,5)-pyrrolo[2,3-b]pyridina-1(4,1),3(4,3)-dipyrazolacyclononaphan-6-one] |  |  |  |  | 533 nM |
| CN1CCCCn2cc(c(C(F)(F)F)n2)-c2c[nH]c3ncc(cc23)-c2cn(C)nc2C1=O [Compound 75, (Z)-31,5-dimethyl-13-(trifluoromethyl)-11H,21H,31H-5-aza-2(3,5)-pyrrolo[2,3-b]pyridina-1(4,1),3(4,3)-dipyrazolacyclononaphan-4-one] | > 100 nM |  | > 100 nM | > 100 nM |  |
| CN1Cc2nn(C)cc2-c2cnc3[nH]cc(c3c2)-c2cn(nc2C(F)(F)F)CCCC1=O [Compound 43, (Z)-31,5-dimethyl-13-(trifluoromethyl)-11H,21H,31H-5-aza-2(3,5)-pyrrolo[2,3-b]pyridina-1(4,1),3(4,3)-dipyrazolacyclononaphan-6-one] | < 50 nM | most potent | < 50 nM | > 100 nM |  |
| Cc1[nH]c2ncc3cc2c1-c1cn(nc1C(F)(F)F)CCCC(=O)N(C)Cc1nn(C)c(C#N)c1-3 [Compound 52, (Z)-22,31,5-trimethyl-6-oxo-13-(trifluoromethyl)-11H,21H,31H-5-aza-2(3,5)-pyrrolo[2,3-b]pyridina-1(4,1),3(4,3)-dipyrazolacyclononaphane-35-carbonitrile] |  |  |  |  | 55 nM |
| CN1Cc2nn(C3CCNCC3)cc2-c2cnc3[nH]cc(c3c2)-c2cn(nc2C(F)(F)F)CCCC1=O [Compound 60, (Z)-5-methyl-31-(piperidin-4-yl)-13-(trifluoromethyl)-11H,21H,31H-5-aza-2(3,5)-pyrrolo[2,3-b]pyridina-1(4,1),3(4,3)-dipyrazolacyclononaphan-6-one] | < 50 nM | most potent | < 50 nM | > 100 nM |  |
| CN1Cc2nn(C3CCNCC3)cc2-c2cnc3[nH]cc(c3c2)-c2cn(nc2C(F)(F)F)CCC1=O [Compound 65, (Z)-5-methyl-31-(piperidin-4-yl)-13-(trifluoromethyl)-11H,21H,31H-5-aza-2(3,5)-pyrrolo[2,3-b]pyridina-1(4,1),3(4,3)-dipyrazolacyclooctaphan-6-one] | > 100 nM |  | > 100 nM | > 100 nM |  |
| COCCn1nc2c(c1C#N)-c1cnc3[nH]cc(c3c1)-c1cn(nc1C(F)(F)F)CCCC(=O)N(C)C2 [Compound 61, (Z)-31-(2-methoxyethyl)-5-methyl-6-oxo-13-(trifluoromethyl)-11H,21H,31H-5-aza-2(3,5)-pyrrolo[2,3-b]pyridina-1(4,1),3(4,3)-dipyrazolacyclononaphane-35-carbonitrile] | < 50 nM | most potent | > 100 nM | > 100 nM |  |
| CN1Cc2nn(C)cc2-c2cnc3[nH]cc(c3c2)-c2cn(nc2C(F)(F)F)CCC1=O [Compound 63, (Z)-31,5-dimethyl-13-(trifluoromethyl)-11H,21H,31H-5-aza-2(3,5)-pyrrolo[2,3-b]pyridina-1(4,1),3(4,3)-dipyrazolacyclooctaphan-6-one] | 50 to 100 nM |  | < 50 nM | 50 to 100 nM |  |
| CN1CCCCn2cc(c(C(F)(F)F)n2)-c2c[nH]c3ncc(cc23)-c2c(nn(C)c2C#N)C1=O [Compound 78, (Z)-31,5-dimethyl-4-oxo-13-(trifluoromethyl)-11H,21H,31H-5-aza-2(3,5)-pyrrolo[2,3-b]pyridina-1(4,1),3(4,3)-dipyrazolacyclononaphane-35-carbonitrile] | > 100 nM |  | > 100 nM | > 100 nM |  |
